We go through one compound from patent US20090239828A1, “Adhesive preparation” (priority 2006, published 2009).

Series [1] in a line: Oral administration in rat models of osteoporosis. Particulars: in vivo; from the minimum effective dose in oral administration in rat models; read-out: sum of the AUC value of minodronic acid per month that gives a suppressive effect on osteoporosis. As for the experimental part: The effective blood concentration of the bisphosphonic acid derivative for human can be extrapolated from results of various clinical tests, animal experiments, etc. For example, when minodronic acid hydrate was used, the sum of the AUC value of minodronic acid per month that gives a suppressive effect on osteoporosis was about 5 ng·hr/mL or more, from the minimum effective dose in oral administration in rat models of osteoporosis.

Series [2] is described as follows: Clinical test, once daily oral administration to patients with osteoporosis. Particulars: human, in vivo.

Turning to `O=P(O)(O)C(O)(Cc1cnc2ccccn12)P(=O)(O)O` [minodronic acid hydrate, 1-hydroxy-2-(imidazo[1,2-a]pyridin-3-yl)ethylidenebisphosphonic acid], the AUC in series [1] was at least 5 ng·h/mL; in series [2], at least 1 ng·h/mL.
